Source: publication PMC3359661, “FK228 Analogues Induce Fetal Hemoglobin in Human Erythroid Progenitors” (Anemia, 2012)
“And” between values parts separate entries of the source, which are not always exact repeats. Equal entries are not always repeated.

Columns and labels:
Assay type in all cases: cell-based, human
[1] = test system: γ-globin transcription in primary erythroid progenitors; assay: RT-qPCR of γ-globin mRNA in primary erythroid progenitors (two-phase liquid culture); conditions: Day 11 erythroid progenitors treated 48 hr (Figure 3 legend), untreated normalized to one
Description: (§1) The two-phase liquid culture system was established as previously published by Fibach et al. using buffy coat mononuclear cells, purchased from Carter Blood Care (Fort Worth, TX) in accordance with the guidelines of the Institutional Review Board at the University of Texas at Dallas. During phase 1, cells were grown in IMDM medium with 30% fetal bovine serum and 50 ng/mL each of the granulocyte-monocyte colony-stimulating factor, Interleukin-3, and stem cell factor. Subsequently, phase 2 was initiated on day 7 with the addition of erythropoietin (2 U/mL) and stem cell factor (50 ng/mL). The cells were treated on Day 11 with the different test compounds and harvested on Day 14 (72 hr incubation).
Total RNA was isolated from samples using RNA Stat-60 (TEL-TEST “B” Inc., Friendswood, TX) and used for RT-qPCR analysis as previously published. […] The globin mRNA levels were calculated as a ratio of GAPDH (γ/GAPDH, β/GAPDH), and the γ/β-globin mRNA ratio was calculated by dividing γ/GAPDH by β/GAPDH.
Figure 3 JMA33 and JMA26 induce HbF in primary erythroid cells. (a) Day 11 erythroid progenitors were treated for 48 hr with the controls agents and the FK228 analogues shown and then analyzed by RT-qPCR. […] Data were calculated as the means ± SEM. […] The images generated were used to count 500 DAPI positive cells and the %FITC positive cells were calculated accordingly.

[2] = test system: HbF levels in primary erythroid cells; assay: HbF ELISA in primary erythroid cells
Description: as §1
Total hemoglobin was quantified using 20 μL of protein extract from one million KU812 cells mixed with 5 mL of Drabkin's reagent (Sigma); then cyanmethemoglobin was measured at the 540 nm wavelength. HbF levels were quantified using the human Hemoglobin F ELISA Quantitation Kit (Bethyl Laboratory, Montgomery, TX). Briefly, 96-well plates were coated with sheep anti-human HbF antibody (1 mg/mL). After blocking with 1% bovine serum albumin, horse radish peroxidase-conjugated secondary antibody (1 mg/mL) was added. Raw data were analyzed using GraphPad PRISM (GraphPad Software, Inc., La Jolla, CA) and HbF levels were calculated as a ratio of total hemoglobin corrected for total protein (HbF/total Hb/total protein).

HeLa cells = assay: HDAC Fluorescent Activity Assay (Fluor de Lys) in HeLa cells; conditions: 300 nM
Description: (§2) The HDAC Fluorescent Activity Assay (Enzo Life Science, Farmingdale, NY) was used to measure HDAC inhibition in HeLa cells in a 96-well format using Trichostatin A as the positive control per the manufacturer's protocol. This assay is based on the Fluor de Lys (Fluorogenic Histone Deacetylase Lysyl (FDL)) Substrate/Developer. The procedure was as follows: the test compounds FK228, JMA26, and JMA33 were added to HeLa cells along with the FDL substrate to allow intracellular drug activation then fluorescence levels were read on the fluorometer at 440 nm (CytoFluor II, PerSeptive Biosystems, Farmingdale, NY). The drug concentrations tested were based on the amount required for HbF induction in primary cells. Data was reported as the mean ± standard deviation (SD) for at least five replicates.
(§3) To ascertain the mechanism of HbF induction by the lead compounds, we performed an in vivo assay to investigate the ability of JMA26 and JMA33 to act as HDAC inhibitors. The HDAC Fluorescent Activity Assay designed to measure HDAC activity in HeLa cells was completed in a 96-well format. The assay is based on the fact that the Fluor de Lys substrate is deacetylated by HDACs to generate a fluorescent readout. TSA (0.5 to 1000 nM) was used to establish the assay in HeLa cells, showing about 80% HDAC inhibition in our system (Figure 4(a)).
(§4) Figure 4 HDAC inhibition assay. The HDAC Fluorescent Activity Assay was used to measure HDAC inhibition in HeLa cells (See Section 2). Compounds and FDL substrate were added to HeLa cells to allow drug activation in vivo then fluorescence levels were quantified on the fluorometer at 440 nm. (a) Trichostatin A (TSA) was used as the control. (b) Inhibition studies were conducted for FK228 showing maximal HDAC inhibition at the 300 nM concentration. (c) Similar studies were performed for JMA33 and JMA26. The data are reported as the means ± SEM.

[3] = test system: HDAC activity in HeLa cells; assay: as above; conditions: 300 nM; HeLa cells, Fluor de Lys substrate; maximal inhibition
Description: as §2, §3, §4

FK228
induction of γ-globin transcription at the mRNA level [1]: ≤ 3.2 fold
Fold change in HbF levels ([2]; relative to untreated = 1, concentrations as in E7): 2.4 fold and 2.454 fold
Fetal hemoglobin quantification, Mean (HbF/total Hb/total protein) ([2]; treated Day 11, harvested Day 14, conc: Cys 10 mM, Hemin 50 μM, SAHA 2000 nM, FK228 1.5 nM, JMA1 1.5 nM, JMA2 1.0 nM, JMA26 500 nM, JMA33 1000 nM, untreated 0.683): 1.676
cell toxicity (HeLa cells): marked cell toxicity
HDAC inhibition [3]: about 85%
